The test system of one data set is EPO secretion by Hep3B cells. Kind of data set: Measurement of the secretion of EPO by Hep3B hepatocytes (ELISA on supernatant). The class given is cell-based. The following applies: Homo sapiens, 18 hours incubation under normoxia, EPO in supernatant, 50% of the maximum response of this same compound. An excerpt: 2. Measurement of the Secretion of VEGF and EPO by Hep3B Hepatocytes 2.1. Object
HIF is a transcription factor involved in the adaptation of cells to hypoxia. Since the genes activated by HIF are involved in the adaptive response of cells to hypoxia and of tissues to ischaemia, the object is to identify and characterize compounds that stabilize HIF1-alpha in cells in order to amplify or mimic its beneficial effect. HIF1-alpha was identified following the analysis of the EPO gene promoter, which makes this protein one of the first markers of HIF1-alpha activation. Moreover, VEGF is also identified in the literature as one of the main markers of HIF activation. It is for this reason that measurement of these two proteins was selected for characterizing compounds that are HIF activators in Hep3B cells.
The object was thus to develop a sensitive screening test, adaptable to 96-well plates, for directly measuring the amount of VEGF and EPO in the supernatant of the Hep3B cells (cells derived from a human hepatocarcinoma) in response to the potential HIF activators.
The test is an ELISA test for measuring VEGF and EPO in the supernatant of Hep3B cells treated under hypoxia or with deferoxamine as controls or with the potential HIF activators. The test was adapted to a 96-well plate, allowing greater compound screening capacity.
• 2.3.1 Experiment Plan • 1) Inoculation of the cells on D0 • 2) Adherence for 6 hours under normoxia • 3) Preparation and addition of the products (Biomek 2000 and FX) • 4) Incubation under normoxia for 18 hours • 5) EPO and VEGF assay in the supernatant on D+1 • 2.3.2 Inoculation of the Cells
The cells are subcultured into 100 μl of culture medium (10% FCS) in black, opaque-bottomed 96-well plates (reference Costar 3916) at 30 000 cells/well, with Multidrop. • 2.3.3 Treatment of the Cells
The test products are prepared at 10^−2 M in 100% DMSO and then diluted to […] in medium containing 0.1% FCS (6 μl in 194 μl of MEM). 200 μl of each compound are deposited in column 12 of a 96-well plate. Dilution ranges from […] to 3×10^−8M are prepared with Biomek 2000 (programme: range of 9 points in series). 100 μl of MEM 0.1% FCS and Deferoxamine 5×10^−3M are added as controls to column 3 and, respectively, to wells A,B,C,D and wells E,F,G,H • DL Plate Distribution in Cell Plates
The medium of the cells inoculated the day before into 96-well plates is changed for 90 μl of medium containing 0.1% FCS and 10 μl are distributed with FX 96 from the 96-well DL plates to the cell plates.
The cell plates thus treated are placed for 18 hours in an incubator at 37° C. (ambient O2, 6% CO2).
The supernatants (80 μl) of the Hep3B cells in the 96-well plates treated with the potential HIF activators are recovered with a multichannel pipette for simultaneous assay of the VEGF and the EPO by ELISA according to the supplier's instructions (Kit EPO Mesoscale (ref K15122B-2)).
The activating activity of a compound with respect to HIF is given by the concentration that produces 50% of the maximum response of this same compound in Table IV below.
What is called EC50 is the midpoint of the concentration-response curve. High values mean a need for much substance, low ones an effect from little substance. For the molecule `CCN(c1ccccc1)S(=O)(=O)c1ccc(-n2[nH]c(C)c(Cc3cccc(COC)c3)c2=O)nc1` [Compound 34, N-ethyl-6-{4-[3-(methoxymethyl)benzyl]-3-methyl-5-oxo-2,5-dihydro-1H-pyrazol-1-yl}-N-phenylpyridine-3-sulfonamide], the EC50 is 900 nM.

Test system in a further data set: not given
Assay: not given
Settings: not given
For orientation: melting point means the temperature of the solid-liquid transition. On to `CCN(c1ccccc1)S(=O)(=O)c1ccc(-n2[nH]cc(CC3CCCC3)c2=O)nc1` [Compound 134], for which the melting point was determined as 170 °C.

The molecule `CN([C@@H]1CC[C@H](CO)C1)S(=O)(=O)c1ccc(-n2[nH]cc(Cc3ccccc3)c2=O)nc1` [Compound 138, 6-(4-benzyl-5-oxo-2,5-dihydro-1H-pyrazol-1-yl)-N-[(1R,3S)-3-(hydroxymethyl)cyclopentyl]-N-methylpyridine-3-sulfonamide] returned a melting point of 108 °C.

As to `O=c1c(Cc2ccccc2)c[nH]n1-c1ccc(S(=O)(=O)N(C[C@@H](O)CO)C2CCCC2)cn1` [Compound 142, 6-(4-benzyl-5-oxo-2,5-dihydro-1H-pyrazol-1-yl)-N-cyclopentyl-N-[(2R)-2,3-dihydroxypropyl]pyridine-3-sulfonamide], the melting point turned out to be 184 °C.

Turning to `O=c1c(Cc2ccccc2)c[nH]n1-c1ccc(S(=O)(=O)N(CC(O)CO)c2ccccc2)cn1` (stereo not drawn) [Compound 143, 6-(4-benzyl-5-oxo-2,5-dihydro-1H-pyrazol-1-yl)-N-(2,3-dihydroxypropyl)-N-phenylpyridine-3-sulfonamide], the melting point is 174 °C.

With `CCC(C)(C)N(C)S(=O)(=O)c1ccc(-n2[nH]cc(Cc3cccnc3)c2=O)nc1` [Compound 145], the melting point is 162 °C.

Consider `CN(C1CCCC1)S(=O)(=O)c1ccc(-n2[nH]cc(C(CC(=O)NCC(F)(F)F)c3ccccc3)c2=O)nc1` (stereo not drawn) [Compound 146, 3-(2-{5-[cyclopentyl(methyl)sulfamoyl]pyridin-2-yl}-3-oxo-2,3-dihydro-1H-pyrazol-4-yl)-3-phenyl-N-(2,2,2-trifluoroethyl)propanamide], for which the melting point was found to be 80 °C.

`O=c1c(Cc2ccccc2)c[nH]n1-c1ccc(S(=O)(=O)N(CC(CO)CO)C2CCCC2)cn1` [Compound 147, 6-(4-benzyl-5-oxo-2,5-dihydro-1H-pyrazol-1-yl)-N-cyclopentyl-N-[3-hydroxy-2-(hydroxymethyl)propyl]pyridine-3-sulfonamide]: the melting point was above 260 °C.

`O=c1c(Cc2ccccc2)c[nH]n1-c1ccc(S(=O)(=O)N(C[C@H](O)CO)C2CCCC2)cn1` [Compound 148, 6-(4-benzyl-5-oxo-2,5-dihydro-1H-pyrazol-1-yl)-N-cyclopentyl-N-[(2S)-2,3-dihydroxypropyl]pyridine-3-sulfonamide] registered a melting point of 184 °C.

`O=c1c(Cc2ccccc2)c[nH]n1-c1ccc(S(=O)(=O)N[C@H]2CCC[C@@H]2O)cn1` [Compound 149] registered a melting point of 176 °C.

`CC(C)(C)NS(=O)(=O)c1ccc(-n2[nH]cc(Cc3ccncc3)c2=O)nc1` [Compound 150] showed a melting point of 226 °C.

In the case of `CN(c1ccccc1)S(=O)(=O)c1ccc(-n2[nH]cc(Cc3ccccc3)c2=O)nc1` [Compound 153], the melting point was 198 °C.

Turning to `CCOC(=O)CC(c1ccccc1)c1c[nH]n(-c2ccc(S(=O)(=O)NC(C)(C)C)cn2)c1=O` (stereo not drawn) [Compound 155], the melting point is 130 °C.

Turning to `O=c1c(Cc2ccccc2)c[nH]n1-c1ccc(S(=O)(=O)NCCO)cn1` [Compound 157], the melting point was 180 °C.

With `COc1ccc(Cc2c(C)[nH]n(-c3ccc(S(=O)(=O)N(C)C(C)(C)C)cn3)c2=O)nc1` [Compound 160], the melting point was 165 °C.

As for `Cc1[nH]n(-c2ccccn2)c(=O)c1Cc1ccccc1C#N` [Compound 172], the melting point turned out to be 157 °C.

Consider `Cc1[nH]n(-c2ccccn2)c(=O)c1Cc1ccc(C#N)cc1` [Compound 173], for which the melting point is 154 °C.

Turning to `Cc1[nH]n(-c2ccccn2)c(=O)c1Cc1ccncc1` [Compound 175], the melting point worked out at 162 °C.

The molecule `Cc1[nH]n(-c2ccccn2)c(=O)c1Cc1cccc(C#N)c1` [Compound 177] displayed a melting point of 90 °C.

Turning to `COc1cc(Cc2c(C)[nH]n(-c3ccccn3)c2=O)cc(OC)c1` [Compound 179], the melting point worked out at 96 °C.

With `Cc1[nH]n(-c2ccccn2)c(=O)c1Cc1ccc(S(C)(=O)=O)cc1` [Compound 180], the melting point was found to be 144 °C.

Regarding `COCCOc1cccc(Cc2c(C)[nH]n(-c3ccccn3)c2=O)c1` [Compound 181], the melting point was 68 °C.

Regarding `Cc1[nH]n(-c2ccccn2)c(=O)c1Cc1ccccc1` [Compound 182], the melting point was determined as 110 °C.

`Cc1[nH]n(-c2ccccn2)c(=O)c1Cc1cccnc1` [Compound 183] returned a melting point of 80 °C.

`COc1ccc(OC)c(Cc2c(C)[nH]n(-c3ccccn3)c2=O)c1` [Compound 184] showed a melting point of 62 °C.

As for `Cc1[nH]n(-c2ccccn2)c(=O)c1Cc1cccc(C(F)(F)F)c1` [Compound 185], the melting point turned out to be 78 °C.

As for `Cc1[nH]n(-c2ccccn2)c(=O)c1Cc1ccc(C(F)(F)F)cc1` [Compound 186], the melting point is 94 °C.

Take `Cc1[nH]n(-c2ccccn2)c(=O)c1Cc1ccccc1C(F)(F)F` [Compound 188]: the melting point was determined as 106 °C.

In turn, `Cc1[nH]n(-c2ccccn2)c(=O)c1Cc1ccc(N(C)C)cc1` [Compound 189] gave a melting point of 110 °C.

Molecule `COc1ccc(Cc2c(C)[nH]n(-c3ccccn3)c2=O)cc1` [Compound 191] returned a melting point of 96 °C.

In turn, `COc1ccccc1Cc1c(C)[nH]n(-c2ccccn2)c1=O` [Compound 192] yielded a melting point of 254 °C.

In turn, `COc1cccc(Cc2c(C)[nH]n(-c3ccccn3)c2=O)c1` [Compound 193] had a melting point of 120 °C.

In turn, `CCc1[nH]n(-c2ccccn2)c(=O)c1Cc1ccccc1` [Compound 195] had a melting point of 76 °C.

In turn, `Cc1[nH]n(-c2ccccn2)c(=O)c1CCc1ccccc1` [Compound 196] gave a melting point of 128 °C.

On to `Cc1[nH]n(-c2ccc(S(=O)(=O)c3ccccc3)cn2)c(=O)c1Cc1cccnc1` [Compound 197, 5-methyl-2-[5-(phenylsulfonyl)pyridin-2-yl]-4-(pyridin-3-ylmethyl)-1,2-dihydro-3H-pyrazol-3-one], for which the melting point was 176 °C.

Turning to `CC(C)(C)COC(=O)c1ccc(-n2[nH]cc(Cc3cccnc3)c2=O)nc1` [Compound 198, 2,2-dimethylpropyl 6-[5-oxo-4-(pyridin-3-ylmethyl)-2,5-dihydro-1H-pyrazol-1-yl]pyridine-3-carboxylate], the melting point amounted to 160 °C.
